Results as given in patent publication US20240360175A1, “PEPTIDE DERIVATIVES AND RELATED USES AS OREXIN AGONISTS” (Centessa Pharmaceuticals (UK) Limited, priority 2021, published 2024).
Like-named read-outs stand apart in the source and are kept apart here. Values belong to the compound of their own block, whether it stands above or below them. Square brackets hold non-standard residues; d marks the D form. Ends that are not written are not given here. Peptide text beside a SMILES is read from it. * marks the point of attachment. Malonyl(2,2-Me2,histaminyl) = CC(C)(C(=O)NCCc1cnc[nH]1)C(=O)*; hArg(Et2) = CCN=C(NCC)NCCCC[C@H](N)C(=O)O; Gly(NCH2CH2Ph) = O=C(O)CNCCc1ccccc1; PEG6 = NCCOCCOCCOCCOCCOCCOCCC(=O)O; Hyp = O=C(O)[C@@H]1C[C@@H](O)CN1; Hpg = N[C@H](C(=O)O)c1ccc(O)cc1; NMeN = CN[C@@H](CC(N)=O)C(=O)O; Aoc(2) = CCCCCC[C@H](N)C(=O)O; NMeL = CN[C@@H](CC(C)C)C(=O)O; Ahp(2) = CCCCC[C@H](N)C(=O)O; Phg = N[C@H](C(=O)O)c1ccccc1; Nle = CCCC[C@H](N)C(=O)O

How the values were obtained:
[1] = target: T1, human orexin type 1 receptor (hOX1R) (Homo sapiens, UniProt O43613); assay: Measurement of orexin type 1 receptor agonist activity (FLIPR TETRA intracellular Ca2+ fluorescence); type: cell-based
T1 construct: expressed in transfected cells
T1 sequence (O43613 1-425): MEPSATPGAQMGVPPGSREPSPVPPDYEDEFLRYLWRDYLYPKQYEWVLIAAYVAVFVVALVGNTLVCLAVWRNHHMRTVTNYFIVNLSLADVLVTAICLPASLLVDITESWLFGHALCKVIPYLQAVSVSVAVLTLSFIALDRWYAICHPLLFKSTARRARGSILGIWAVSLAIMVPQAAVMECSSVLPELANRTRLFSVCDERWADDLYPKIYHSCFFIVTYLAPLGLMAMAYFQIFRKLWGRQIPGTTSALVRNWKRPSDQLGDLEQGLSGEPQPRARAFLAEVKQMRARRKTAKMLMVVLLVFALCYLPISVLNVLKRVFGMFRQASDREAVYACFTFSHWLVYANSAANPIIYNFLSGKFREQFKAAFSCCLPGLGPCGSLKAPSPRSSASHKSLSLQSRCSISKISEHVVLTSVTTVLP
Description: (§1) Stable cell line generation. Obtainment of cells stably expressing either human orexin type 2 or human orexin type 1 receptor: to obtain a stable cell line the Orexin receptor cDNA was inserted into pcDNA3.1(+) plasmid vector and clones identified by G418 drug resistance selection. […] A single clone for OX2R—CHO and OX1R—CHO were grown in bulk and frozen to generate a cell bank for routine screening.
(§2) Measurement of orexin type 1 receptor agonist activity. Chinese hamster ovary (CHO) cells expressing human orexin type 1 receptor (hOX1R) were seeded in each well of 384 well black clear bottom plates (BD Flacon) at 10,000 cells per well and cultured for 24 h in an Ham's F12 (Gibco) medium containing 10% fetal calf serum (Sigma Aldrich) under the conditions of 37° C., 5% CO2. After removal of the medium, 50 μL of assay buffer 1 (0.1% bovine serum albumin (Sigma Aldrich), 20 mM HEPES (Molecular Dimensions), […] probenecid (Sigma Aldrich), 1× Calcium 5 dye (Molecular Devices) in Hank's balanced salt solution (Invitrogen)) was added, and the cells were incubated for 60 min under the conditions of 37° C., 5% CO2. A test peptide was dissolved in dimethyl sulfoxide (Sigma Aldrich) to 1 mM, and then diluted with assay buffer 2 (20 mM HEPES, Hank's balanced salt solution, 0.1% bovine serum albumin). For the reaction, a test peptide solution (10 μl) was added using Fluorescent Imaging Plate Reader TETRA (FLIPR TETRA: manufactured by Molecular Devices), a fluorescence value (excitation wavelength 488 nm, measurement wavelength 570 nm) of each well was measured every one second for 2 min, and the agonist activity was determined using the area of the fluorescence value as an indicator of intracellular Ca^2+ concentration. The agonist activity of the test peptide was calculated assuming that the fluorescence value of the well added with only the dilution buffer was 0% and the fluorescence value of the well added with 10 nM human orexin A (Tocris) buffer was 100%. As used herein, Emax indicates the value at 1 μM concentration when orexin A is converted to a full agonist (maximum value of agonist activity: 100%).

[2] = target: T2, human orexin type 2 receptor (hOX2R) (Homo sapiens, UniProt O43614); assay: Measurement of orexin type 2 receptor agonist activity (FLIPR TETRA intracellular Ca2+ fluorescence); type: cell-based
T2 construct: expressed in transfected cells
T2 sequence (O43614 1-444): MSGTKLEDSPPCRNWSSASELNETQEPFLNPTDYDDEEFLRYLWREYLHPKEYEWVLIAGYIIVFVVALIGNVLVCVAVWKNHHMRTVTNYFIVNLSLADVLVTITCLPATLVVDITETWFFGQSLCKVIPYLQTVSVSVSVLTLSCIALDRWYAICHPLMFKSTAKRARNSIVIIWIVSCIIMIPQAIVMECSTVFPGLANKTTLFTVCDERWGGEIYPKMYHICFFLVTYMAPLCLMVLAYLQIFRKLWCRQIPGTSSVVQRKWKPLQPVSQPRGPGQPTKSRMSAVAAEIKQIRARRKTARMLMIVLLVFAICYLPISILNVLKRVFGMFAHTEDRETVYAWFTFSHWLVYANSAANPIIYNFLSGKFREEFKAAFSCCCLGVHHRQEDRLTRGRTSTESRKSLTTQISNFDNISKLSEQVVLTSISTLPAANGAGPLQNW
Description: as §1
as §2, with “type 2” for “type 1”, “receptor (hOX2R)” for “receptor (hOX1R) were”

OX2R [3] = settings: subcutaneous, cited from earlier work
individuals with NT1 = settings: initial clinical studies; cited from earlier work
OX2R [4] = target: T3, OX2R (Mus musculus, UniProt P58308); settings: cited from earlier work
T3 construct: host or cells: mice in vivo (WT, orexin ligand-deficient, NT1 model, OX2R-knockout)
T3 sequence (P58308 1-460): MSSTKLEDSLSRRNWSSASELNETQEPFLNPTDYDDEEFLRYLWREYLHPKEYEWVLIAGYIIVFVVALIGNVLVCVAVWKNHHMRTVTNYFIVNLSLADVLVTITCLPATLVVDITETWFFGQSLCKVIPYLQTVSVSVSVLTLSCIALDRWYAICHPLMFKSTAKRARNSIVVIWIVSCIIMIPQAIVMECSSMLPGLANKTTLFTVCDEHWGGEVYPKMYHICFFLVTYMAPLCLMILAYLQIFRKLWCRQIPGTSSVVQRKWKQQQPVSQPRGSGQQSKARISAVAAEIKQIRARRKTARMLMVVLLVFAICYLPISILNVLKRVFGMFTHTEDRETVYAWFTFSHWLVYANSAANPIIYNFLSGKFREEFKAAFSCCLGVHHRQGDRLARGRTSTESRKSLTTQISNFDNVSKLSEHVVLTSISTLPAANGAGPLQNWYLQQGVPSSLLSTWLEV

[5] = tested on: orexin-neuron ablated mice; settings: ICV; cited from earlier work
[6] = CHO cells expressing hOX1R, agonist activity, Ca2+ fluorescence, read-out: hOX1 pEC50 (converted)
[7] = CHO cells expressing hOX2R, agonist activity, Ca2+ fluorescence, read-out: hOX2 pEC50 (converted)

Compound: CCCCCC[C@H](NC(=O)[C@@H](NC(=O)[C@H](CC(C)C)NC(=O)[C@@H](NC(=O)CNC(=O)[C@@H](NC(=O)[C@H](C)NC(=O)[C@H](Cc1c[nH]cn1)NC(=O)[C@H](CC(N)=O)NC(=O)CN(CCc1ccccc1)C(=O)[C@H](CCCCNC(=NCC)NCC)NC(=O)C(C)(C)C(=O)NCCc1cnc[nH]1)c1ccc(O)cc1)[C@@H](C)CC)[C@@H](C)O)C(N)=O [Peptide 25] ({Malonyl(2,2-Me2,histaminyl)}-[hArg(Et2)][Gly(NCH2CH2Ph)]NHA[Hpg]GILT[Aoc(2)]-NH2)
EC50 [1]: > 10 nM | EC50 [2]: < 0.1 nM

Compound: CCCCCC[C@H](NC(=O)[C@@H](NC(=O)[C@H](CC(C)C)NC(=O)[C@@H](NC(=O)CNC(=O)[C@@H](NC(=O)[C@H](C)NC(=O)[C@H](Cc1c[nH]cn1)NC(=O)[C@H](CC(N)=O)NC(=O)CN(CCc1ccccc1)C(=O)[C@H](CCCCNC(=NCC)NCC)NC(=O)[C@H](CCC(N)=O)NC(=O)C(C)(C)C(=O)NCCc1cnc[nH]1)c1ccccc1)[C@@H](C)CC)[C@@H](C)O)C(N)=O [Peptide 26] ({Malonyl(2,2-Me2,histaminyl)}-Q[hArg(Et2)][Gly(NCH2CH2Ph)]NHA[Phg]GILT[Aoc(2)]-NH2)
EC50 [1]: > 10 nM | EC50 [2]: < 0.1 nM

Compound: COC(=O)N1CCC[C@H](NS(C)(=O)=O)[C@@H]1CO[C@H]1CC[C@@H](c2ccccc2)CC1 [TAK-925]
wakefulness (OX2R [3]; OX2R-knockout mice): not in OX2R-knockout mice | wakefulness (OX2R [3]; WT mice): modestly increased wakefulness | cataplexy (individuals with NT1): trends for decreasing cataplexy | wakefulness (individuals with NT1): substantial levels of increased wakefulness

Compound: COc1ccc(-c2cccc(C(=O)N(C)C)c2)cc1S(=O)(=O)Nc1cccc(NCCNC(=O)c2ccccc2N(C)C)c1 [YNT-185]
sleep-onset REM periods and cataplexy-like events (OX2R [4]; NT1 mouse model): decreases sleep-onset REM periods and cataplexy-like events | wakefulness (OX2R [4]; intraperitoneally or ICV, wild type (WT) and orexin ligand-deficient mice): modestly increases wakefulness

Compound: orexin A (QPLPDCCRQKTCSCRLYELLHGAGNHAAGILTL; ends and bridges not checked; cysteine pairing not given here; UniProt O43612 34-66, looked up) [orexin A (OXA), orexin neuropeptide cleaved from prepro-orexin]
cataplexy-like behavior [5]: decreases cataplexy-like behavior | time spent awake [5]: increase time spent awake

Now from value to compound:

EC50 [1, 6]: > 10 nM | EC50 [2, 7]: < 0.1 nM
Compound: CCCCC[C@H](NC(=O)[C@@H](NC(=O)[C@H](CC(C)C)NC(=O)[C@@H](NC(=O)CNC(=O)[C@@H](NC(=O)[C@H](C)NC(=O)[C@@H]1C[C@@H](O)CN1C(=O)[C@H](CC(N)=O)NC(=O)CN(CCc1ccccc1)C(=O)[C@H](CCCNC(=N)N)NC(=O)CCOCCOCCOCCOCCOCCOCCN)c1ccccc1)[C@@H](C)CC)[C@@H](C)O)C(N)=O [Peptide 27] (H-[PEG6]R[Gly(NCH2CH2Ph)]N[Hyp]A[Phg]GILT[Ahp(2)]-NH2)

EC50 [1, 6]: > 10 nM | EC50 [2, 7]: < 0.1 nM
Compound: CCCC[C@H](NC(=O)[C@@H](NC(=O)[C@H](CC(C)C)NC(=O)[C@@H](NC(=O)CNC(=O)[C@@H](NC(=O)[C@H](C)NC(=O)[C@@H]1C[C@@H](O)CN1C(=O)[C@H](CC(N)=O)NC(=O)CN(CCc1ccccc1)C(=O)[C@H](CCCNC(=N)N)NC(=O)CCOCCOCCOCCOCCOCCOCCN)c1ccccc1)[C@@H](C)CC)[C@@H](C)O)C(N)=O [Peptide 28] (H-[PEG6]R[Gly(NCH2CH2Ph)]N[Hyp]A[Phg]GILT[Nle]-NH2)

EC50 [1, 6]: > 10 nM | EC50 [2, 7]: < 0.1 nM
Compound: CCCCCC[C@H](NC(=O)[C@@H](NC(=O)[C@H](CC(C)C)N(C)C(=O)[C@@H](NC(=O)CNC(=O)[C@@H](NC(=O)[C@H](C)NC(=O)[C@@H]1C[C@@H](O)CN1C(=O)[C@H](CC(N)=O)NC(=O)CN(CCc1ccccc1)C(=O)[C@H](CCCNC(=N)N)NC(=O)CCOCCOCCOCCOCCOCCOCCN)c1ccccc1)[C@@H](C)CC)[C@@H](C)O)C(N)=O [Peptide 29] (H-[PEG6]R[Gly(NCH2CH2Ph)]N[Hyp]A[Phg]GI[NMeL]T[Aoc(2)]-NH2)

EC50 [1, 6]: > 10 nM | EC50 [2, 7]: < 0.1 nM
Compound: CCCCC[C@H](NC(=O)[C@@H](NC(=O)[C@H](CC(C)C)NC(=O)[C@@H](NC(=O)CNC(=O)[C@@H](NC(=O)[C@H](C)NC(=O)[C@@H]1C[C@@H](O)CN1C(=O)[C@H](CC(N)=O)N(C)C(=O)CN(CCc1ccccc1)C(=O)[C@H](CCCNC(=N)N)NC(=O)CCOCCOCCOCCOCCOCCOCCN)c1ccccc1)[C@@H](C)CC)[C@@H](C)O)C(N)=O [Peptide 30] (H-[PEG6]R[Gly(NCH2CH2Ph)][NMeN][Hyp]A[Phg]GILT[Ahp(2)]-NH2)

EC50 [1, 6]: > 10 nM | EC50 [2, 7]: < 0.1 nM
Compound: CCCCCC[C@H](NC(=O)[C@@H](NC(=O)[C@H](CC(C)C)N(C)C(=O)[C@@H](NC(=O)CNC(=O)[C@@H](NC(=O)[C@H](C)NC(=O)[C@@H]1C[C@@H](O)CN1C(=O)[C@H](CC(N)=O)N(C)C(=O)CN(CCc1ccccc1)C(=O)[C@H](CCCNC(=N)N)NC(=O)CCOCCOCCOCCOCCOCCOCCN)c1ccccc1)[C@@H](C)CC)[C@@H](C)O)C(N)=O [Peptide 31] (H-[PEG6]R[Gly(NCH2CH2Ph)][NMeN][Hyp]A[Phg]GI[NMeL]T[Aoc(2)]-NH2)
